Data on 33 compounds can be found in patent US6855730B2, “3-methylidenyl-2-indolinone modulators of protein kinase” (Sugen, Inc., priority 1998, dated 2005).

Molecules are shown by their SMILES.

Chain of EGFR (P00533 25-1210): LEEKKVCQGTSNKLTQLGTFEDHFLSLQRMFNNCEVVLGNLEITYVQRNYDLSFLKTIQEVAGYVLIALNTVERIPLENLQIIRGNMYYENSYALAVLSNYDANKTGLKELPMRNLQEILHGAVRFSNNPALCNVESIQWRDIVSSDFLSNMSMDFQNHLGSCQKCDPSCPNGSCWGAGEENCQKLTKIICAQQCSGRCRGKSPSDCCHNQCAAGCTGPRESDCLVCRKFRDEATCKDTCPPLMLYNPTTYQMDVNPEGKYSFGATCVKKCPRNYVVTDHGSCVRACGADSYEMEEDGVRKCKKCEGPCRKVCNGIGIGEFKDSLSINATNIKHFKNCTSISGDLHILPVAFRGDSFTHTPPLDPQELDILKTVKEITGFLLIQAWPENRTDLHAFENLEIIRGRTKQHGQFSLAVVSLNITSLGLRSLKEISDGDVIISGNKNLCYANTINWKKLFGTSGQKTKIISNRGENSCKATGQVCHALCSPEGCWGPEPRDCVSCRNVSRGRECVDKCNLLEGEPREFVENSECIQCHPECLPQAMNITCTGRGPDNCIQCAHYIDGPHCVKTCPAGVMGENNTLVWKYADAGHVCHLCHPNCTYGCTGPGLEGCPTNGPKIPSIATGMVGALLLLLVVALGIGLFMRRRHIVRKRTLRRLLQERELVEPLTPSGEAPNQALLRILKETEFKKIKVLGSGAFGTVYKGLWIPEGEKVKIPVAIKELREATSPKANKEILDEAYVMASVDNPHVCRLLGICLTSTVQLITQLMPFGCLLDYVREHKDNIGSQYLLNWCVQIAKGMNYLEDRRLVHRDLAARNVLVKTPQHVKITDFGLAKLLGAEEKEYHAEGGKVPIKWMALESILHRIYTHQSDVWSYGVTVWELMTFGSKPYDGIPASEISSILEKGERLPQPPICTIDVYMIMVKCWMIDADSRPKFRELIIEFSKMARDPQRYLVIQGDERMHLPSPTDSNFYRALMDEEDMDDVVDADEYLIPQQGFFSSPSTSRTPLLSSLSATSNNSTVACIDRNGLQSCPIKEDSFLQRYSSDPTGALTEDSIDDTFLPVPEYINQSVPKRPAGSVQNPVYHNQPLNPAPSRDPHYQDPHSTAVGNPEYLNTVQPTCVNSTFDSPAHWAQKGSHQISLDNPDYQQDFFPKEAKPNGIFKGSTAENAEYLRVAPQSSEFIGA

This test concerns the target EGFR (Homo sapiens, UniProt P00533). Put plainly: Biochemical EGFR assay (ELISA, A431 cell lysate). Particulars: read-out: bio EGFr IC50. On the set-up: A431 cell lysate (Screening Lab, SUGEN, Inc.); host or cells: A431. The gist of the method:
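EGFR captured from A431 cell lysate onto anti-EGFR-coated plates, then incubated with test compound for 30 min at room temperature. Tyrosine phosphorylation with ATP/MnCl2 was stopped with EDTA after 5 min and detected by anti-phosphotyrosine ELISA with peroxidase/ABTS read-out.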
(ELISA stands for enzyme-linked immunosorbent assay.)
As to `CCOC(=O)c1c(C)[nH]c(/C=C2\C(=O)Nc3ccc(Br)cc32)c1CCC(=O)O` [Compound 114, 5-(5-Bromo-2-oxo-1,2-dihydroindol-3-ylidenemethyl)-4-(2-carboxyethyl)-2-methyl-1H-pyrrole-3-carboxylic acid ethyl ester], the IC50 (usually the concentration that gives 50% inhibition) was greater than 100 µM.

Consider `Cc1cc(CCC(=O)O)c(/C=C2\C(=O)Nc3ccc(Br)cc32)[nH]1` [Compound 116, 3-[2-(5-Bromo-2-oxo-1,2-dihydroindol-3-ylidenemethyl)-5-methyl-1H-pyrrol-3-yl]-propionic acid], for which the IC50 is greater than 100 µM. For the compound `COc1c(C(C)C)cc(/C=C2/C(=O)Nc3ccccc32)cc1C(C)C` [Example 1, 3-(3,5-Diisopropyl-4-methoxybenzylidene)-1,3-dihydroindol-2-one], the IC50 was greater than 100 µM. As to `COc1c(C(C)C)cc(/C=C2/C(=O)Nc3ccc(Cl)cc32)cc1C(C)C` [Example 2, 5-Chloro-3-(3,5-diisopropyl-4-methoxybenzylidene)-1,3-dihydroindol-2-one], the IC50 is greater than 100 µM. For `O=C1Nc2ccc(N=Cc3cc4ccccc4[nH]3)cc2C1=Cc1cc2ccccc2[nH]1` [Example 171, 3-(1H-indol-2-ylmethylene)-5-[(1H-indol-2-ylmethylene)-amino]-1,3-dihydroindol-2-one] the value was greater than 100 µM.

Regarding `NS(=O)(=O)c1ccc2c(c1)/C(=C/c1c[nH]c3ccccc13)C(=O)N2` [Example 172, 3-(1H-Indol-3-ylmethylene)-2-oxo-2,3-dihydro-1H-indole-5-sulfonic acid amide], the IC50 was greater than 100 µM. For `CNS(=O)(=O)c1ccc2c(c1)/C(=C/c1cc3ccccc3[nH]1)C(=O)N2` [Example 173, 3-(1H-Indol-2-ylmethylene)-2-oxo-2,3-dihydro-1H-indole-5-sulfonic acid methylamide] the value was 22 µM. For `O=C1Nc2ccc(C(=O)O)cc2/C1=C/c1c[nH]c2ccccc12` [Example 174, 3-(1H-Indol-3-ylmethylene)-2-oxo-2,3-dihydro-1H-indole-5-carboxylic acid] the value was greater than 100 µM; for `O=C1Nc2ccc(C(=O)O)cc2/C1=C/c1ccc2[nH]ccc2c1` [Example 177, 3-(1H-Indol-5-ylmethylene)-2-oxo-2,3-dihydro-1H-indole-5-carboxylic acid], 6.13 µM; for `Nc1ccc2c(c1)/C(=C/c1ccc3[nH]ccc3c1)C(=O)N2` [Example 179, 5-Amino-3-(1H-indol-5-ylmethylene)-1,3-dihydro-indol-2-one], greater than 100 µM.

`Cc1c(/C=C2\C(=O)Nc3ccc(N)cc32)[nH]c2ccccc12` [Example 180, 5-Amino-3-(3-methyl-1H-indol-2-ylmethylene)-1,3-dihydroindol-2-one]: the IC50 was greater than 100 µM. For `Cc1[nH]c2ccccc2c1/C=C1\C(=O)Nc2ccc(C(=O)O)cc21` [Example 182, 3-(2-Methyl-1H-indol-3-ylmethylene)-2-oxo-2,3-dihydro-1H-indole-5-carboxylic acid] the value was greater than 100 µM; for `Cc1[nH]c2ccccc2c1/C=C1\C(=O)Nc2ccc(N)cc21` [Example 187, 5-Amino-3-(2-methyl-1H-indol-3-ylmethylene)-1,3-dihydroindol-2-one], greater than 100 µM. For `O=C(O)CCc1c(/C=C2\C(=O)Nc3ccc(Cl)cc32)[nH]c2c1CCCC2` [Example 191, 3-[2-(5-Chloro-2-oxo-1,2-dihydroindol-3-ylidenemethyl)-4,5,6,7-tetrahydro-1H-indol-3-yl]-propionic acid] the value was greater than 100 µM; for `Cc1cccc2c1/C(=C/c1[nH]c3c(c1CCC(=O)O)CCCC3)C(=O)N2` [Example 193, 3-[2-(4-Methyl-2-oxo-1,2-dihydroindol-3-ylidenemethyl)-4,5,6,7-tetrahydro-1H-indol-3-yl]-propionic acid], 90.7 µM.

Regarding `O=C(O)CCc1c(/C=C2\C(=O)Nc3cc(Cl)ccc32)[nH]c2c1CCCC2` [Example 195, 3-[2-(6-Chloro-2-oxo-1,2-dihydroindol-3-ylidenemethyl)-4,5,6,7-tetrahydro-1H-indol-3-yl]-propionic acid], the IC50 came to 36.5 µM. For `CN(C)C(=O)CCc1c(/C=C2\C(=O)Nc3ccccc32)[nH]c2c1CCCC2` [Example 197, N,N-Dimethyl-3-[2-(2-oxo-1,2-dihydroindol-3-ylidenemethyl)-4,5,6,7-tetrahydro-1H-indol-3-yl]-propionamide] the value was greater than 100 µM; for `CN(C)CCCc1c(/C=C2\C(=O)Nc3ccccc32)[nH]c2c1CCCC2` [Example 198, 3-[3-(3-Dimethylaminopropyl)-4,5,6,7-tetrahydro-1H-indol-2-ylmethylene]-1,3-dihydroindol-2-one], greater than 100 µM.

Take `NC(=O)CCc1c(/C=C2\C(=O)Nc3ccccc32)[nH]c2c1CCCC2` [Example 199, 3-[2-(2-Oxo-1,2-dihydroindol-3-ylidenemethyl)-4,5,6,7-tetrahydro-1H-indol-3-yl]-propionamide]: the IC50 was greater than 100 µM.

For `O=C1Nc2ccccc2/C1=C/c1[nH]c2c(c1CCC(=O)N1CCOCC1)CCCC2` [Example 200, 3-[3-(3-Morpholin-4-yl-3-oxopropyl)-4,5,6,7-tetrahydro-1H-indol-2-ylmethylene]-1,3-dihydroindol-2-one], the IC50 was greater than 100 µM. For `CNC(=O)CCc1c(/C=C2\C(=O)Nc3ccccc32)[nH]c2c1CCCC2` [Example 201, N-Methyl-3-[2-(2-oxo-1,2-dihydroindol-3-ylidenemethyl)-4,5,6,7-tetrahydro-1H-indol-3-yl]-propionamide] the value was greater than 100 µM; for `O=C(CCc1c(/C=C2\C(=O)Nc3ccccc32)[nH]c2c1CCCC2)NCCN1CCOCC1` [Example 202, N-(2-Morpholin-4-ylethyl)-3-[2-(2-oxo-1,2-dihydroindol-3-ylidenemethyl)-4,5,6,7-tetrahydro-1H-indol-3-yl]-propionamide], greater than 100 µM. For `O=C(O)CCc1c(/C=C2\C(=O)Nc3ncccc32)[nH]c2c1CCCC2` [Example 203, 3-[2-(2-Oxo-1,2-dihydropyrrolo[2,3-b]pyridin-3-ylidenemethyl)-4,5,6,7-tetrahydro-1H-indol-3-yl]-propionic acid] the value was greater than 12.5 µM; for `COc1cccc(-c2ccc3c(c2)NC(=O)/C3=C\c2[nH]c3c(c2CCC(=O)O)CCCC3)c1` [Example 204, 3-{2-[6-(3-Methoxyphenyl)-2-oxo-1,2-dihydro-indol-3-ylidenemethyl]-4,5,6,7-tetrahydro-1H-indol-3-yl}-propionic acid], 7.09 µM. For `COc1ccc(-c2ccc3c(c2)NC(=O)/C3=C\c2[nH]c3c(c2CCC(=O)O)CCCC3)cc1` [Example 205, 3-{2-[6-(4-Methoxyphenyl)-2-oxo-1,2-dihydro-indol-3-ylidenemethyl]-4,5,6,7-tetrahydro-1H-indol-3-yl}-propionic acid] the value was 16.2 µM; for `CC(C)NS(=O)(=O)c1ccc2c(c1)C(=Cc1[nH]c3c(c1CCC(=O)O)CCCC3)C(=O)N2` [Example 208, 3-[2-(5-Isopropylaminosulfonyl-2-oxo-1,2-dihydroindol-3-ylidenemethyl)-4,5,6,7-tetrahydro-1H-indol-3-yl]-propionic acid], greater than 100 µM; for `O=C(O)CCc1ccccc1/C=C1/C(=O)Nc2ccccc21` [Example 214, 3-[2-(2-Oxo-1,2-dihydroindol-3-ylidenemethyl)-phenyl]-propionic acid], greater than 100 µM. Consider `Cc1c[nH]c(/C=C2\C(=O)Nc3ccccc32)c1CCC(=O)O` [Example 215, 3-[4-Methyl-2-(2-oxo-1,2-dihydroindol-3-ylidenemethyl)-1H-pyrrol-3-yl]-propionic acid], for which the IC50 was greater than 100 µM. For `Cc1c[nH]c(/C=C2\C(=O)Nc3ccc(Cl)cc32)c1CCC(=O)O` [Example 216, 3-[2-(5-Chloro-2-oxo-1,2-dihydroindol-3-ylidenemethyl)-4-methyl-1H-pyrrol-3-yl]-propionic acid] the value was greater than 100 µM; for `COc1ccc2c(c1)NC(=O)/C2=C\c1[nH]cc(C)c1CCC(=O)O` [Example 217, 3-[2-(6-Methoxy-2-oxo-1,2-dihydroindol-3-ylidenemethyl)-4-methyl-1H-pyrrol-3-yl]-propionic acid], greater than 100 µM; for `Cc1c[nH]c(C=C2C(=O)Nc3cc(Cl)ccc32)c1CCC(=O)O` [Example 219, 3-[2-(6-Chloro-2-oxo-1,2-dihydroindol-3-ylidenemethyl)-4-methyl-1H-pyrrol-3-yl]-propionic acid], 98.1 µM. On to `COc1ccc2c(c1)/C(=C/c1[nH]cc(C)c1CCC(=O)O)C(=O)N2` [Example 222, 3-[2-(5-Methoxy-2-oxo-1,2-dihydroindol-3-ylidenemethyl)-4-methyl-1H-pyrrol-3-yl]-propionic acid], for which the IC50 is greater than 100 µM. For `COc1cccc(-c2ccc3c(c2)NC(=O)/C3=C\c2[nH]cc(C)c2CCC(=O)O)c1` [Example 223, 3-{2-[6-(3-Methoxyphenyl)-2-oxo-1,2-dihydro-indol-3-ylidenemethyl]-4-methyl-1H-pyrrol-3-yl}-propionic acid] the value was 13.3 µM.
